Data taken from PubChem BioAssay AID330 (DTP/NCI, 2004).
Where “and” joins values, the source holds several entries; their conditions need not be identical. Equal values may be shown once. Toxic doses and inconclusive results are not listed. How the source made its calls: active means survival T/C of 150% or more; inactive means T/C below 125% in these data.

Test system: P388 leukemia ip, CD2F1 mice, survival T/C
Assay: NCI In Vivo Anticancer Drug Screen. Data for tumor model P388 Leukemia (intraperitoneal) in CD2F1 (CDF1) mice
Conditions: endpoint: median survival time, higher = longer survival
Procedure, shortened: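 Mice carrying the transplanted tumor received test compound or vehicle. Survival was recorded in each group, and the value is the treated-group measurement divided by that of the vehicle-treated control group.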

[1] = dose: 50.0 mg/kg/injection, schedule: Q01DX005 (ip), vehicle: saline
[2] = dose: 100.0 mg/kg/injection, schedule: Q01DX005 (ip), vehicle: saline
[3] = dose: 200.0 mg/kg/injection, schedule: Q01DX005 (ip), vehicle: saline
[4] = dose: 50.0 mg/kg/injection, schedule: Q01DX005 (ip), vehicle: Klucel (hydroxypropylcellulose) (HPC)
[5] = dose: 100.0 mg/kg/injection, schedule: Q01DX005 (ip), vehicle: Klucel (hydroxypropylcellulose) (HPC)
[6] = dose: 12.5 mg/kg/injection, schedule: Q01DX009 (ip), vehicle: saline with Tween-80
[7] = dose: 25.0 mg/kg/injection, schedule: Q01DX009 (ip), vehicle: saline with Tween-80
[8] = dose: 50.0 mg/kg/injection, schedule: Q01DX009 (ip), vehicle: saline
[9] = dose: 100.0 mg/kg/injection, schedule: Q01DX009 (ip), vehicle: saline
[10] = dose: 200.0 mg/kg/injection, schedule: Q01DX009 (ip), vehicle: saline
[11] = dose: 50.0 mg/kg/injection, schedule: Q01DX005 (ip), vehicle: saline with Tween-80
[12] = dose: 100.0 mg/kg/injection, schedule: Q01DX005 (ip), vehicle: saline with Tween-80
[13] = dose: 50.0 mg/kg/injection, schedule: Q01DX009 (ip), vehicle: Klucel (hydroxypropylcellulose) (HPC)
[14] = dose: 100.0 mg/kg/injection, schedule: Q01DX009 (ip), vehicle: Klucel (hydroxypropylcellulose) (HPC)
[15] = dose: 200.0 mg/kg/injection, schedule: Q01DX009 (ip), vehicle: Klucel (hydroxypropylcellulose) (HPC)

Measured: T/C

CCCCNC(c1ccc(N(CC)CC)cc1)C(Cl)(Cl)Cl (stereo not given)
inactive: [1] 105 % of control and 106 % of control | dose: 50.0 mg/kg/injection, schedule: Q01DX005 (ip), vehicle: water 100 % of control | [2] 108 % of control and 116 % of control | dose: 100.0 mg/kg/injection, schedule: Q01DX005 (ip), vehicle: water 93 % of control | [3] 110 % of control

COc1ccc(CCN(CCC#N)C(=O)C(Cl)Cl)cc1
inactive: [4] 97 % of control | [5] 97 % of control | dose: 200.0 mg/kg/injection, schedule: Q01DX005 (ip), vehicle: Klucel (hydroxypropylcellulose) (HPC) 99 % of control

O=C(Nc1cccnc1)c1ccccc1
inactive: dose: 6.25 mg/kg/injection, schedule: Q01DX009 (ip), vehicle: saline with Tween-80 100 % of control | [6] 100 % of control | [7] 100 % of control

CC(C)(C)/C(=N\Nc1ccc([N+](=O)[O-])cc1[N+](=O)[O-])c1ccccc1
inactive: dose: 3.13 mg/kg/injection, schedule: Q01DX001 (ip), vehicle: saline with Tween-80 91 % of control | dose: 6.25 mg/kg/injection, schedule: Q01DX001 (ip), vehicle: saline with Tween-80 116 % of control | dose: 12.5 mg/kg/injection, schedule: Q01DX001 (ip), vehicle: saline with Tween-80 95 % of control

Cc1ccc(N=C(N)NN=C(c2ccc(Cl)cc2)c2ccc(Cl)cc2)cc1
inactive: dose: 25.0 mg/kg/injection, schedule: Q04DX002 (ip), vehicle: saline with Tween-80 98 % of control and 103 % of control and 107 % of control | dose: 50.0 mg/kg/injection, schedule: Q04DX002 (ip), vehicle: saline with Tween-80 100 % of control and 106 % of control and 108 % of control | dose: 100.0 mg/kg/injection, schedule: Q04DX002 (ip), vehicle: saline with Tween-80 107 % of control (2×) and 109 % of control | dose: 200.0 mg/kg/injection, schedule: Q04DX002 (ip), vehicle: saline with Tween-80 105 % of control and 118 % of control and 120 % of control

O=c1cc(O)cc[nH]1
inactive: dose: 400.0 mg/kg/injection, schedule: Q01DX009 (ip), vehicle: saline 100 % of control and 96 % of control | dose: 600.0 mg/kg/injection, schedule: Q01DX009 (ip), vehicle: saline 101 % of control and 106 % of control

CCCCCCCCCCCCCCCOc1cc(OC)ccc1-c1nnc(SC)s1
inactive: [8] 100 % of control | [9] 91 % of control | [10] 100 % of control

CCOC(=O)/C(C#N)=C(\C)c1ccc(O)c(OC)c1
inactive: dose: 60.0 mg/kg/injection, schedule: Q01DX005 (ip), vehicle: saline with Tween-80 100 % of control | dose: 120.0 mg/kg/injection, schedule: Q01DX005 (ip), vehicle: saline with Tween-80 101 % of control | dose: 240.0 mg/kg/injection, schedule: Q01DX005 (ip), vehicle: saline with Tween-80 95 % of control

S=C(NCCc1ccccc1)N/N=C/c1ccc(Cl)cc1
inactive: [4] 104 % of control | [5] 100 % of control

O=S(=O)(O)Cc1ccc(CS(=O)(=O)O)cc1
inactive: dose: 12.5 mg/kg/injection, schedule: Q04DX002 (ip), vehicle: saline 93 % of control | dose: 25.0 mg/kg/injection, schedule: Q04DX002 (ip), vehicle: saline 102 % of control | dose: 50.0 mg/kg/injection, schedule: Q04DX002 (ip), vehicle: saline 98 % of control

CN(C)c1ccc(/C=C/c2ccnc3ccc(Cl)cc23)cc1
inactive: [7] 118 % of control

NN=C(c1ccccn1)c1ccccn1
inactive: dose: 37.5 mg/kg/injection, schedule: Q01DX009 (ip), vehicle: saline with Tween-80 94 % of control | dose: 75.0 mg/kg/injection, schedule: Q01DX009 (ip), vehicle: saline with Tween-80 114 % of control | dose: 150.0 mg/kg/injection, schedule: Q01DX009 (ip), vehicle: saline with Tween-80 113 % of control

O=C1C[CH]([Ge](=[O])[O][Ge](=[O])[CH]2CC(=O)NC(=O)N2)NC(=O)N1 (stereo not given)
inactive: dose: 15.0 mg/kg/injection, schedule: Q01DX005 (ip), vehicle: water 97 % of control | dose: 30.0 mg/kg/injection, schedule: Q01DX005 (ip), vehicle: water 99 % of control | dose: 60.0 mg/kg/injection, schedule: Q01DX005 (ip), vehicle: water 111 % of control | dose: 120.0 mg/kg/injection, schedule: Q01DX005 (ip), vehicle: water 103 % of control and 118 % of control | dose: 240.0 mg/kg/injection, schedule: Q01DX005 (ip), vehicle: water 95 % of control

O=S1(=O)C(CCCCC2=Cc3ccccc3S2(=O)=O)=Cc2ccccc21
inactive: [11] 94 % of control | [12] 100 % of control

N#CCc1nn(-c2ccccc2)c2ncnc(N)c12
inactive: dose: 6.25 mg/kg/injection, schedule: Q01DX009 (ip), vehicle: Klucel (hydroxypropylcellulose) (HPC) 103 % of control | dose: 12.5 mg/kg/injection, schedule: Q01DX009 (ip), vehicle: Klucel (hydroxypropylcellulose) (HPC) 100 % of control and 114 % of control and 94 % of control | dose: 25.0 mg/kg/injection, schedule: Q01DX009 (ip), vehicle: Klucel (hydroxypropylcellulose) (HPC) 108 % of control and 97 % of control (2×) | [13] 100 % of control and 120 % of control and 98 % of control | [14] 106 % of control

O=C(NP(=O)(O)NC(Cc1ccccc1)C(=O)O)OCc1ccccc1 (stereo not given)
inactive: [1] 106 % of control | [2] 109 % of control | [3] 102 % of control

CC1c2ccccc2OS(=O)N1C (stereo not given)
inactive: [13] 104 % of control | [14] 110 % of control | [15] 111 % of control

COC(CNC(=O)COc1ccccc1OCC(=O)NCC(OC)OC)OC
inactive: [1] 99 % of control | [2] 102 % of control | [3] 102 % of control

CN(C)N=Nc1ccc(N(C)C)cc1
inactive: dose: 0.39 mg/kg/injection, schedule: Q01DX009 (ip), vehicle: Klucel (hydroxypropylcellulose) (HPC) 121 % of control | dose: 0.78 mg/kg/injection, schedule: Q01DX009 (ip), vehicle: Klucel (hydroxypropylcellulose) (HPC) 113 % of control and 114 % of control | dose: 1.56 mg/kg/injection, schedule: Q01DX009 (ip), vehicle: Klucel (hydroxypropylcellulose) (HPC) 113 % of control and 120 % of control | dose: 3.13 mg/kg/injection, schedule: Q01DX009 (ip), vehicle: Klucel (hydroxypropylcellulose) (HPC) 103 % of control and 118 % of control

CCOS(=O)(=O)CCl
inactive: [6] 106 % of control | [7] 100 % of control | dose: 50.0 mg/kg/injection, schedule: Q01DX009 (ip), vehicle: saline with Tween-80 107 % of control and 112 % of control

Cc1nc(N)nc2c1CCC(O)S2 (stereo not given)
inactive: [1] 98 % of control | [2] 102 % of control | [3] 96 % of control

N#CC(COC(=O)c1ccccc1)OC(=O)c1ccccc1 (stereo not given)
inactive: [11] 91 % of control | [12] 95 % of control | dose: 200.0 mg/kg/injection, schedule: Q01DX005 (ip), vehicle: saline with Tween-80 86 % of control

CS(=O)(=O)OCC(O)C(O)CI (stereo not given)
inactive: dose: 25.0 mg/kg/injection, schedule: Q01DX005 (ip), vehicle: saline 109 % of control | [1] 104 % of control | [2] 111 % of control

NS(=O)(=O)c1cccnc1Nc1ccc([N+](=O)[O-])cc1
inactive: [8] 105 % of control | [9] 101 % of control | [10] 93 % of control

COc1cc2c(cc1OC(C)=O)C(=O)C(Br)CCC2 (stereo not given)
inactive: dose: 100.0 mg/kg/injection, schedule: Q01DX009 (ip), vehicle: saline with Tween-80 89 % of control | dose: 200.0 mg/kg/injection, schedule: Q01DX009 (ip), vehicle: saline with Tween-80 86 % of control

COc1cc2c(cc1OC)C(c1ccc(S(=O)(=O)C(C)C)cc1)NCC2 (stereo not given)
inactive: [13] 89 % of control | [14] 101 % of control | [15] 108 % of control
